Measured values: patent US20100298141A1, “SUBSTITUTED PYRIDINE N-OXIDE HERBICIDES” (E. I. DU PONT DE NEMOURS AND COMPANY, priority 2007, published 2010)

Tests used:
catchweed bedstraw = experiment: Test C pre-/postemergence test; format: in vivo, Galium aparine
In short: (§1)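 Seeds were planted and treated preemergence with test chemical in a non-phytotoxic solvent mixture containing surfactant. Postemergence applications of the same formulation went onto plants 2 to 18 cm tall (1- to 4-leaf stage). A dash marks no test result.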

downy brome = experiment: Test C pre-/postemergence test; format: in vivo, Bromus tectorum
In short: as §1

johnsongrass = experiment: Test C pre-/postemergence test; format: in vivo, Sorghum halepense
In short: as §1

woolly cupgrass = experiment: Test C pre-/postemergence test; format: in vivo, Eriochloa villosa
In short: as §1

duck salad = experiment: Test C flooded paddy test; format: in vivo, Heteranthera limosa; conditions: Flood
In short: (§2)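 Visual injury ratings against untreated controls, taken 13 to 15 days after compound was added to paddy water standing 3 cm above the soil.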

velvetleaf [1] = experiment: Test A pre-/postemergence greenhouse test; format: in vivo, Abutilon theophrasti; conditions: for Velvetleaf plant response rating: 0 to 100 scale
In short: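 Greenhouse herbicide screen, pre- and postemergence in parallel. Soil: loam plus sand. Formulation: non-phytotoxic solvent mix with surfactant. Postemergence stage: one to two leaves, 2–10 cm height. Evaluation: visual injury, compared with untreated controls, about 10 days after treatment.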

blackgrass = experiment: Test C pre-/postemergence test; format: in vivo, Alopecurus myosuroides
In short: as §1

Italian ryegrass = experiment: Test C pre-/postemergence test; format: in vivo, Lolium multiflorum
In short: as §1

corn = experiment: Test C pre-/postemergence test; format: in vivo, Zea mays
In short: as §1

cocklebur = experiment: Test C pre-/postemergence test; format: in vivo, Xanthium strumarium
In short: as §1

wild oat = experiment: Test C pre-/postemergence test; format: in vivo, Avena fatua
In short: as §1

green foxtail = experiment: Test C pre-/postemergence test; format: in vivo, Setaria viridis
In short: as §1

giant foxtail = experiment: Test C pre-/postemergence test; format: in vivo, Setaria faberii
In short: as §1

velvetleaf [2] = experiment: Test C pre-/postemergence test; format: in vivo, Abutilon theophrasti
In short: as §1

morningglory = experiment: Test C pre-/postemergence test; format: in vivo, Ipomoea coccinea
In short: as §1

soybean = experiment: Test C pre-/postemergence test; format: in vivo, Glycine max; conditions: for Soybean plant response rating: preemergence, scale 0 (no effect) to 100 (complete control)
In short: as §1

barnyardgrass = experiment: Test C flooded paddy test; format: in vivo, Echinochloa crus-galli; conditions: Flood
In short: as §2

[3] = 62 g ai/ha, Preemergence, scale 0 to 100
[4] = 125 g ai/ha, preemergence, scale 0 (no effect) to 100 (complete control)
[5] = Preemergence, 31 g ai/ha, scale 0 to 100 (0 no effect, 100 complete control)
[6] = preemergence, 250 g ai/ha, scale 0 (no effect) to 100 (complete control)
[7] = 62 g ai/ha, scale 0 to 100 (0 no effect, 100 complete control)
[8] = 250 g ai/ha, scale 0 to 100, 0 no effect, 100 complete control, 13 to 15 days

CCc1cc[n+]([O-])c(S(=O)(=O)Cc2c(C(F)(F)F)nn(C)c2OC(F)F)c1 [Compound 102]
10: Plant response rating, Blackgrass (blackgrass; [5])
85: Cupgrass, Woolly plant response rating (woolly cupgrass; [3]) | Cupgrass, Woolly plant response rating (woolly cupgrass; [4]) | Plant response rating, Foxtail, Green (green foxtail; [5]) | Foxtail, Giant plant response rating (giant foxtail; [4]) | Foxtail, Giant plant response rating (giant foxtail; [6]) | Morningglory plant response rating (morningglory; [3])
35: Plant response rating, Oat, Wild (wild oat; [5])
20: Ryegrass, Italian plant response rating (Italian ryegrass; [6])
60: Plant response rating, Foxtail, Giant (giant foxtail; [5])
100: Galium plant response rating (catchweed bedstraw; [4]) | Galium plant response rating (catchweed bedstraw; [6]) | Bromegrass, Downy plant response rating (downy brome; [3]) | Bromegrass, Downy plant response rating (downy brome; [4]) | Bromegrass, Downy plant response rating (downy brome; [6]) | Johnsongrass plant response rating (johnsongrass; [3]) | Johnsongrass plant response rating (johnsongrass; [4]) | Johnsongrass plant response rating (johnsongrass; [6]) | Velvetleaf plant response rating (velvetleaf [1]; Preemergence, 500 g ai/ha, 0 no effect, 100 complete control) | Foxtail, Green plant response rating (green foxtail; [6]) | Morningglory plant response rating (morningglory; [4]) | Morningglory plant response rating (morningglory; [6])
30: Plant response rating, Galium (catchweed bedstraw; [5]) | Velvetleaf plant response rating (velvetleaf [2]; [3])
0: Plant response rating, Ducksalad (duck salad; [7]) | Ryegrass, Italian plant response rating (Italian ryegrass; [3]) | Ryegrass, Italian plant response rating (Italian ryegrass; [4]) | Plant response rating, Ryegrass, Italian (Italian ryegrass; [5]) | Corn plant response rating (corn; [3]) | Corn plant response rating (corn; [4]) | Plant response rating, Corn (corn; [5]) | Corn plant response rating (corn; [6]) | Cocklebur plant response rating (cocklebur; [3]) | Cocklebur plant response rating (cocklebur; [4]) | Plant response rating, Cocklebur (cocklebur; [5]) | Cocklebur plant response rating (cocklebur; [6]) | Plant response rating, Velvetleaf (velvetleaf [2]; [5]) | Plant response rating, Barnyardgrass (barnyardgrass; [7]) | Plant response rating, Barnyardgrass (barnyardgrass; [8])
65: Plant response rating, Morningglory (morningglory; [5]) | Soybean plant response rating (soybean; 125 g ai/ha)
70: Plant response rating, Johnsongrass (johnsongrass; [5]) | Plant response rating, Velvetleaf (velvetleaf [1]; Postemergence, 125 g ai/ha, 0 to 100 scale where 0 is no effect and 100 is complete control) | Velvetleaf plant response rating (velvetleaf [1]; Preemergence, 125 g ai/ha, 0 no effect, 100 complete control) | Oat, Wild plant response rating (wild oat; [3]) | Foxtail, Giant plant response rating (giant foxtail; [3])
98: Foxtail, Green plant response rating (green foxtail; [4])
50: Plant response rating, Bromegrass, Downy (downy brome; [5]) | Plant response rating, Cupgrass, Woolly (woolly cupgrass; [5]) | Plant response rating, Soybean (soybean; [5])
95: Galium plant response rating (catchweed bedstraw; [3]) | Cupgrass, Woolly plant response rating (woolly cupgrass; [6]) | Oat, Wild plant response rating (wild oat; [6]) | Foxtail, Green plant response rating (green foxtail; [3]) | Velvetleaf plant response rating (velvetleaf [2]; [6])
90: Velvetleaf plant response rating (velvetleaf [1]; Postemergence, 500 g ai/ha, 0 is no effect, 100 is complete control) | Oat, Wild plant response rating (wild oat; [4])
80: Plant response rating, Ducksalad (duck salad; [8]) | Blackgrass plant response rating (blackgrass; [3]) | Blackgrass plant response rating (blackgrass; [4]) | Velvetleaf plant response rating (velvetleaf [2]; [4]) | Soybean plant response rating (soybean; 250 g ai/ha)
